From patent publication US20050281867A1, “Nitric oxide inducing agents” (priority 2003, published 2005)

Legend:
nitric oxide = test: Nitric oxide production / systemic NO levels in treated patients; assay type: in vivo, human
Procedure: Moreover, it was observed that a few patients who received treatment with an agent of the instant invention began to develop resistance due to down-regulation of the insulin receptor. This effect was reversed by co-administering low dose aspirin (15 mg) with the agent. Upon co-administration, the production of nitric oxide returned to normal within 30 minutes of treatment. While the instant agents work through the insulin receptor, aspirin appeared to be insulin-independent and was nitric oxide mediated. Accordingly, one embodiment of the instant methods is the co-administration, i.e., simultaneous or sequential, of low dose aspirin (e.g., ranging from 5-100 mg) with an agent of the instant invention. […] Expression of maspin, a serine protease inhibitor (serpin) known to be a potent anticancer protein, is severely impaired in breast cancer tissue. […] Similarly, production of alpha interferon-a, a widely used anticancer cytokine noted for its antiproliferative and anticancer property, is severely impaired in both malignant breast cancer tissue and non-malignant neutrophils in breast cancer. As with maspin, increases in nitric oxide levels increased production of alpha-interferon to normal ranges. By administering an agent of the instant invention, the auto immunity that is T-cell induced is improved through the neutrophils.

wide variety of cancers = test: Topical treatment of cancer patients, overall statements; assay type: in vivo, human
Source text: A total of 8,125 patients with different kinds of cancer participated in this study. These patients were divided into two groups. Blood samples were collected from 80 patients designated as Group I. These patients included 45 males between 20-65 years old, and 35 females between 25-55 years old. These patients were newly diagnosed patients with cancer who at the time of blood donation had not taken any medicine at least for 14 days and had not yet undergone any treatment of cancer including radiation or chemotherapy but opted for surgery. None of the patients had overt diabetes mellitus, systemic hypertension or suffered coronary artery disease at presentation. None of these patients had any other diagnosed life threatening condition.
Two categories of patients were included in Group II. The first category included 6,705 patients who had previously undergone all available cancer treatments including surgery, radiation and chemotherapy. At the time of participation in the study these patients had exhausted all therapeutic options and were under the care of private physicians and family members in their home. […] At the time of the participation in the study all patients, in the Group II in the second category had stopped taking treatments for cancer, such as chemotherapy and radiation, for at least 2 months. The diagnostic procedures and condition of the patients at presentation are described in Table 1. All institutionalized patients in group II were excluded from the study to avoid ambiguity. As in the case of Group I the patients with any other life threatening conditions or severe infection were also excluded from this group.
A control group of 150 patients were selected randomly from the Group II patients. […] Since the effect of the agents of the instant invention on the neutralization of IANOS antibody in vivo in cancer patients (responders) could be noticed by immunoblot technique (end-point) in 7 days, the patients in the placebo group received the vehicle for 7 days; the neutralization of the antibody and nitric oxide synthesis were determined. […]

[1] = tested on: insulin-activated nitric oxide synthase (IANOS); test: Assay of IANOS of human erythrocytes; assay type: biochemical
Procedure: Both biologic and non-biologic materials for were screened for their ability to activate human erythrocytes IANOS. […] The protein was purified to homogeneity from an aqueous extract (pH 7.4 buffer) by the combination of DEAE cellulose chromatography and SEPHADEX® gel filtration techniques.
Insulin-activated nitric oxide synthase (IANOS) activity of the erythrocyte suspension was carried out by determining the conversion of oxyhemoglobin to methemoglobin using standard methods. Purification of insulin activated nitric oxide synthase (from human erythrocyte membranes) was carried out by DEAE cellulose chromatography.

[2] = tested on: maspin and alpha interferon-a; test: Maspin and alpha interferon in breast cancer tissue and neutrophils of treated subjects; assay type: in vivo, human; settings: malignant breast cancer tissue and non-malignant neutrophils in breast cancer
Source text: Expression of maspin, a serine protease inhibitor (serpin) known to be a potent anticancer protein, is severely impaired in breast cancer tissue. […] Similarly, production of alpha interferon-a, a widely used anticancer cytokine noted for its antiproliferative and anticancer property, is severely impaired in both malignant breast cancer tissue and non-malignant neutrophils in breast cancer. As with maspin, increases in nitric oxide levels increased production of alpha-interferon to normal ranges. By administering an agent of the instant invention, the auto immunity that is T-cell induced is improved through the neutrophils.

Row | Molecule | time until production of nitric oxide returned to normal (nitric oxide; low dose aspirin (15 mg) co-administered with the agent, patients who developed resistance (insulin receptor down-regulation)) [min] | cancers in which particularly effective (wide variety of cancers; non-Hodgkin's lymphoma, brain cancer, breast cancer with mastectomy, lung cancer (non-small cell)) | comparative effect of both agents (wide variety of cancers; pancreatic cancer and bone cancer) | effect against a wide variety of cancers (wide variety of cancers; topical, cancer patients, as shown in Table 1) | activation of erythrocyte IANOS [1] | alpha interferon-a [2] | maspin [2] | systemic NO levels (nitric oxide; after administration)
1 | CC(=O)Oc1ccccc1C(=O)O [aspirin, reference compound] | ≤ 30 |  |  |  |  |  |  | 
2 | insulin |  | particularly effective | equally effective | effective | potent activator | increase | increase | increase
